The values below come from paper PMC4884413, “In vivo therapeutic efficacy and pharmacokinetics of colistin sulfate in an experimental model of enterotoxigenic Escherichia coli infection in weaned pigs” (Veterinary Research, 2016).

The subject of data set [1] is ETEC: F4. Nature of the data set: Fecal ETEC: F4 shedding in challenged weaned pigs. Format: in vivo. The method, then: (§1) Pigs were selected based on the presence of the F4 receptor gene by PCR–RFLP as previously described at 4 days of age. Two trials of 48 pigs were conducted using different doses of CS [100 000 IU/kg (trial 1) or 50 000 IU/kg (trial 2)]. In each trial, four groups of 12 pigs were constituted: challenged treated, challenged untreated, unchallenged treated, and unchallenged untreated.
(§2) For experimental infection of pigs, a nalidixic acid-resistant (Nal^r) variant of ETEC: F4 strain ECL8559 (O149: LT: STa: STb: East1: paa: hemβ: F4), kindly provided by the E. coli Laboratory as described previously, was used. The strain was passaged in a weaned pig to enhance its pathogenicity. A hemolytic, Nal^r colony isolated from the feces of this pig was confirmed to be positive for O149 and the virulence genes F4, STa, STb, LT by multiplex PCR as previously described. This strain, designated ECL8559A, was used in the experimental challenge in this study. After 1-week of acclimatization, 28-day-old pigs in the challenge groups were orally gavaged with 10^9 CFU of the ETEC: F4 strain in 5 mL of trypticase soy broth (Difco Laboratories, Inc., Detroit, MI, USA) following the administration of 10 mL of CaCO3 to neutralize gastric acid.
(§3) Colistin sulfate (Bond & Beaulac Inc., QC, Canada) was administered by oral gavage in 5 mL of water using a polyethylene tube attached to a syringe, at a dose of 100 000 or 50 000 IU/kg in trials 1 and 2 respectively.
Fresh fecal samples were obtained from pigs using pre-weighed sterile rectal swabs (Puritan Medical Products, Guilford, Maine, USA). Bacteriological examination of fecal samples was performed 1 day before and 1, 2, 3, 5, 6, 7, 8, 10, 13, 20, 27, 36 days after oral challenge to evaluate fecal excretion of the challenge ETEC: F4 strain and total E. coli count. […] Rectal swabs were weighed before and after sampling of pigs for individual fecal material quantification.

A further data set relates to total E. coli. Nature of the data set: Fecal total E. coli shedding in weaned pigs. The data set is classed as in vivo. The method, then:
as §1, §2, §3
Fresh fecal samples were obtained from pigs using pre-weighed sterile rectal swabs (Puritan Medical Products, Guilford, Maine, USA). Bacteriological examination of fecal samples was performed 1 day before and 1, 2, 3, 5, 6, 7, 8, 10, 13, 20, 27, 36 days after oral challenge to evaluate fecal excretion of the challenge ETEC: F4 strain and total E. coli count. One millilitre of buffered peptone water solution (BPW) was added to each swab and selected dilutions were plated on MacConkey agar and 5% bovine blood agar plates containing nalidixic acid at 50 μg/mL (Sigma-Aldrich Canada Ltd., Oakville, ON, Canada) to count the total E. coli population and the hemolytic challenge ETEC: F4 strain respectively, as previously described. In parallel, 5% bovine blood agar plates containing nalidixic acid at 50 μg/mL and CS at 2 μg/mL and MacConkey agar plates containing CS at 2 μg/mL were used to enumerate the CS resistant hemolytic challenge ETEC: F4 and total E. coli population respectively. The plates were incubated aerobically for 24 h at 37 °C. Isolates recovered from media containing 2 μg/mL of colistin were considered to be putative CS-resistant, as previously described. All samples were processed on the day of collection. Rectal swabs were weighed before and after sampling of pigs for individual fecal material quantification.

For data set [2], the system named is ETEC: F4. Nature of the data set: Diarrhea score (fecal consistency 0-4) in ETEC: F4 challenged weaned pigs. The note with it: after 2 days of CS administration (d2), also d3 and d4, both trials, challenged treated vs challenged untreated, p < 0.0001. The data set is classed as in vivo.
Description: as §2, with “acid. […]” for “acid.”
After the oral challenge, pigs were observed daily for signs of anorexia, lethargy and diarrhea. The severity of diarrhea was assessed visually by using a fecal consistency scoring (0, normal; 1, soft feces; 2, mild diarrhea; 3, semi liquid diarrhea and 4, liquid diarrhea) as described by Jamalludeen et al.. The rectal body temperature was monitored daily using a digital thermometer.
Ordinal diarrhea scores were analyzed with the Cochran-Mantel-Haenszel test at each time period.

Data set [3] can be described thus: Body weight of weaned pigs. Format: in vivo. As to conditions: both trials, challenged treated compared to challenged untreated pigs. On the procedure:
Pigs were weighed individually using an electric scale prior to inoculation and at 6, 19 and 35 days after beginning CS treatment.
Bacterial counts and CS plasma concentrations were log10 transformed prior to data analysis to normalize distributions. Total E. coli counts, ETEC: F4 counts, rectal temperature, and body weight were analyzed with repeated-measures ANOVA, with time as a within-subject factor and group as the between-subject factor. A priori contrasts were performed to compare group means at different time periods and to compare pre- and post-infection means in each treatment. For these multiple comparisons, the alpha level was adjusted downward using the Benjamini-Hochberg sequential procedure. A similar procedure was used to analyze CS plasma concentration to determine effect of ETEC: F4 oral challenge on CS intestinal absorption in pigs.

The nature of data set [4]: CS plasma concentrations by HPLC-MS/MS after oral administration. The data set is classed as in vivo, pigs. The note with it: both trials. The method, then: as §3
Blood samples (3 mL) were collected using potassium EDTA tubes, from the jugular vein of eight pigs in each treated group, challenged or not of the two trials, at 0.5, 12, 24 and 48 h after the last CS oral administration on day 5.
Plasma was separated by centrifugation at 3000 g for 10 min and stored at −20 °C prior to analysis. These samples were used to determine CS plasma concentrations by high performance HPLC–MS/MS, in order to determine the slope of the terminal phase (λz). The λz was calculated as the negative of the slope of the log-linear regression of the natural logarithm concentration–time curve during the terminal phase. The λz is an important parameter used to determine CS elimination half-life (T1/2), which is an index of drug persistence in the body. Bioanalyses and pharmacokinetic analyses were performed as previously described. The quantification of CS was based on the peak area ratio of the analyte with the internal standard. A calibration curve was used for determining the concentration of CS in all unknown samples by comparing the peak area ratio of the unknown samples to a set of standard samples of known concentration. […]

The next data set relates to E. coli K99. The note with it: CS 300 mg/kg of diet, 7 or 14 days, weanling pigs challenged with E. coli K99; cited from earlier work.
For data set [5] the following is noted: intramuscular (IM), pigs, cited from earlier work. The text has this: In our study, regardless of the dose, CS treatment led to a decrease of nearly 4 log cfu/g in fecal shedding of ETEC: F4 and total E. coli, but only during the treatment period. […] In our study, the effect of CS on the decrease of ETEC: F4 and total E. ...

Counter-ions that a name gives are not always drawn. Like-named read-outs stand apart in the source and are kept apart here. Bridge positions count the residues as written; N and C are the ends. Square brackets hold non-standard residues; d marks the D form. Peptide text beside a SMILES is read from it. * marks the point of attachment. X1 = CC[C@H](C)CCCCC(=O)*; Dab = NCC[C@H](N)C(=O)O

Regarding `CC[C@H](C)CCCCC(=O)N[C@@H](CCN)C(=O)N[C@H](C(=O)N[C@@H](CCN)C(=O)N[C@H]1CCNC(=O)[C@H]([C@@H](C)O)NC(=O)[C@H](CCN)NC(=O)[C@H](CCN)NC(=O)[C@H](CC(C)C)NC(=O)[C@@H](CC(C)C)NC(=O)[C@H](CCN)NC1=O)[C@@H](C)O` [Colistin sulfate] (X1-[Dab]T[Dab][Dab][Dab][dL]L[Dab][Dab]T; lactam 4-C), the “fecal ETEC: F4 shedding” value in the data set on ETEC: F4 [1] (both trials (100 000 or 50 000 IU/kg oral, twice daily, 5 days), between d2 and d6, treated vs untreated challenged pigs, p < 0.0001) is given as “significant reduction”. The “levels of ETEC: F4 in feces” value in the data set with ETEC: F4 [1] (both trials, most pigs, between d4 and d6) is on record as “dropped below our detection limit”. Moreover, the “decrease in fecal shedding of ETEC: F4” value in the data set with ETEC: F4 [1] (regardless of the dose, only during the treatment period) is reported as around 4 log cfu/g. Moreover, the “fecal total E. coli shedding” value in the data set with total E. coli (trial 1, 100 000 IU/kg oral twice daily 5 days, d1 to d5, challenged treated vs challenged untreated, p < 0.0001) is on record as “significant reduction”; with total E. coli (trial 1, 100 000 IU/kg, d2 to d6, unchallenged treated vs unchallenged untreated, p < 0.0001), “significant reduction”; with total E. coli (trial 2, 50 000 IU/kg oral twice daily 5 days, d1 to d6, challenged treated vs challenged untreated, p < 0.0007) it was “significant reduction”; in the data set with total E. coli (trial 2, 50 000 IU/kg, d2 to d5, unchallenged treated vs unchallenged untreated, p < 0.0001), “significant reduction”. In addition, the diarrhea scores entry with ETEC: F4 [2] is “significantly decreased”. Moreover, the pig weight losses entry in data set [3] is given as “did not prevent pig weight losses”. For the same compound, the plasma concentrations entry in data set [4] (48 h following the last CS administration, LLOQ 1 ng/mL of plasma) is reported as “below the LLOQ”. Also, the “CS plasma concentrations, challenged treated compared to unchallenged treated groups” value in data set [4] (all sampling times) is “higher”. Besides, the “reduction of the number of E. coli in cecal digesta” value in the data set with E. coli K99 was 4.38 log cfu/g. Besides, the “reduction of the number of E. coli in ileal digesta” value in the data set with E. coli K99 was 5.30 log cfu/g. For the same compound, the systemic bioavailability in data set [5] (2.5 mg/kg bw) was 95.94%; in data set [5] (5 mg/kg bw), 88.45%.
